Source: patent publication US5885994A, “Tetrahydroquinoxaline dopamine D4 receptor antagonists” (Warner-Lambert Company, priority 1998, dated 1999)
Where two headings read alike, the source gives them in different places.

Experiments:
[1] = system: apomorphine-induced disruption of prepulse inhibition; conditions: rat, background statement; cited from earlier work
[2] = biological target: T1, human D4.2 receptor (Homo sapiens, UniProt P21917, DEL265-296); experiment: Inhibition of [3H]spiperone binding to human dopamine D4.2 receptors; conditions: human D4.2, CHO K1 membranes
T1 construct: expressed in transfected cells; host or cells: CHO K1 cells
T1 sequence (P21917 with tags, fused parts or gaps DEL265-296): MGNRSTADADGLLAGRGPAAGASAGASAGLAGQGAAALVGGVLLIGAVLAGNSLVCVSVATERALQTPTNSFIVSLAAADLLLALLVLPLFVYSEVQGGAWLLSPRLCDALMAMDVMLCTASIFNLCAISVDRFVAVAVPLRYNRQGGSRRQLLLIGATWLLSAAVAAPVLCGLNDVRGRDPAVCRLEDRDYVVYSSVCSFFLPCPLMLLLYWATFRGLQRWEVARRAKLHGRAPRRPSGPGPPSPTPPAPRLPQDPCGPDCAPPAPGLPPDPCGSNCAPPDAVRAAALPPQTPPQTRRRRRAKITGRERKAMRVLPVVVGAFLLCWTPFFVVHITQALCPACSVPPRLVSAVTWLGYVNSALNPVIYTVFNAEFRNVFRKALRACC
Text: (§1) A cell line expressing human dopamine D2 (Long form) receptors was purchased from Oregon Health Sciences University, Portland, Oreg. The D2 receptor cDNA was subcloned into an expression vector, pRc/CMV. The plasmids were transfected by electroporation into CHO K1 cells. A single stable transfectant, resistant to the antibiotic 418, was isolated and selected for use in the binding studies. For D4 binding, CHO K1 cells stably transfected to express the human recombinant dopamine D4.2 receptor subtype, as described by Shih, et al., "The expression and functional characterization of human dopamine D4.2 receptor in CHO K1 cells," Soc. Neurosci., 1995;21(Part 1):621.
(§2) CHO K1 cells expressing either human D2 and D4.2 receptors were grown in 162 cm^2 culture flasks in F12 medium (Gibco Laboratories, Grand Island, N.Y.) supplemented with 10% fetal bovine serum (FBS, Hyclone, Logan, Utah) in an atmosphere of 5% CO2 /95% air at 37° C. Cells were grown until confluent, after which growth medium was removed and replaced with 0.02% ethylene diamine tetracetate (EDTA) in a phosphate-buffered saline solution (Sigma Chemical Co., St. Louis, Mo.) and scraped from the flasks. The cells were centrifuged at about 1000×g for 10 minutes at […] and then resuspended in TEM buffer (25 mM Tris-HCl, pH 7.4, 5 mM EDTA, and 6 mM MgCl2) for D2 or the D4.2 buffer (50 mM Tris-HCl, pH 7.4, 5 mM EDTA, 1.5 mM CaCl2, 5 mM KCl, and 120 mM NaCl) and homogenized. The membranes were pelleted by centrifugation at 20,000×g at […] for 20 minutes. Then the pellets were resuspended in appropriate buffer at 1 mL/flask and stored at -70° C. until used in the receptor binding assay.
(§3) Receptor Binding Assays: D2,D4.2 Dopamine Receptors
(§4) After 60 minutes incubation at 25° C., the incubations were terminated by rapid filtration through Whatmann F/B lass fibre filters (soaked for 1 hour in 0.5% polyethylenimine) on a cell harvester, with three washes of 1 mL ice-cold buffer. Individual filter disks containing the bound ligand were placed in counting vials with 4 mL of scintillation fluid (Ready Gel, Beckman Instrument Inc., Fullerton, Calif.) and then counted in a Beckman LS-6800 liquid scintillation counter at an efficiency of 45%. Nonspecific binding was defined in presence of 1 mM of haloperidol.
(§5) Saturation and competition binding data were analyzed using an iterative nonlinear least-square curve-fitting Ligand program. In competition experiments, apparent Ki values were calculated from IC50 values by method of Cheng and Prusoff, "Relationship between the inhibition constant (Ki) and the concentration of inhibitor which causes 50% inhibition (IC50) of an enzymatic reaction," Biochem. Pharmacol., 1973;22:3099-3108. Experimental compounds were made up as stock solutions in dimethyl sulfoxide (DMSO). […] Each observation was carried out in triplicate. To allow these calculations, Ki values were measured for the interaction of various ligands with the receptor. […]

[3] = biological target: human D2 receptor (Homo sapiens, UniProt P14416); experiment: Inhibition of [3H]spiperone binding to human dopamine D2 receptors; conditions: human D2 (Long form), CHO K1 membranes
Chain of human D2 receptor (P14416 whole entry): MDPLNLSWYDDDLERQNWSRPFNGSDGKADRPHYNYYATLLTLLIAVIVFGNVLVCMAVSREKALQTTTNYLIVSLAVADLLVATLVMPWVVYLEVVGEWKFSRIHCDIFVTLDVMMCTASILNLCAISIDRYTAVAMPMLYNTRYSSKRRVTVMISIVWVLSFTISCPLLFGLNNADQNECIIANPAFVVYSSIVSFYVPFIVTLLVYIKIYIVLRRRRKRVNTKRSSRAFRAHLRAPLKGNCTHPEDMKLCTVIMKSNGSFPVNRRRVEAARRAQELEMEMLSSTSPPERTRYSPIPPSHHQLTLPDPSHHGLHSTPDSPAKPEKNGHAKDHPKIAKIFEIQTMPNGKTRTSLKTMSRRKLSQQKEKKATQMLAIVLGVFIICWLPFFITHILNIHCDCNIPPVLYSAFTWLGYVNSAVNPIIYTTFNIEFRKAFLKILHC
Text: as §1, §2, §3, §4, §5

[4] = biological target: T2, human DA D4.2 receptor (Homo sapiens, UniProt P21917, DEL265-296); experiment: [3H]Thymidine uptake assay (block of quinpirole stimulation in CHO pro-5 cells transfected with human DA D4.2 receptor); type: cell-based; conditions: human D4.2, quinpirole-stimulated uptake
T2 construct: expressed in transfected cells
T2 sequence (P21917 with tags, fused parts or gaps DEL265-296): T1 sequence (P21917 with tags, fused parts or gaps DEL265-296)
Protocol: Compounds were tested for their ability to bind to dopamine (DA) receptors as measured by their inhibition of [^3 H]spiperone binding to the human D2, and D4.2 receptors (Pugsley, et al., 1995). The ability of test compounds to block the stimulation of [^3 H]thymidine uptake in CHO pro-5 cells transfected with human DA D4.2 receptor cDNA caused by the DA agonist quinpirole was employed as an in vitro measure of DA receptor antagonist activity (Pugsley, et al., 1995). The effects of compounds on synthesis rates of rat brain catecholamines were estimated by measuring the accumulation of [3-(3,4-dihydroxyphenyl)-L-alanine (DOPA) after administration of the L-aromatic amino acid decarboxylase inhibitor, NSD 1015 (Pugsley, et al., 1995).
[^3 H]Thymidine Uptake Assay
The effects of test compounds on [^3 H]thymidine uptake were carried out essentially as described by Pugsley, et al., 1995. CHO p-5 cells transfected with human D4.2 cDNA were seeded into 96-well plates at a density of about 5000 cells/well and were grown at 37° C. in a minimum essential medium (aMEM, Gibco) with 10% calf serum for 2 days. The wells were then rinsed three times with serum-free media. Fresh media ([…]) was added along with […] of test compound in water or vehicle alone. Eight wells of each plate received […] of aMEM with 10% fetal calf serum. After culture for 16 to 17 hours, [3H]thymidine ([…]) was added for 4 hours. The cells were trypsinized and harvested onto filter mats with a 96-well Brandel cell harvester. The filters were counted in a Beta-Plate scintillation counter.

[5] = system: amphetamine-stimulated locomotion; experiment: Blockade of amphetamine-stimulated locomotion in rats; type: in vivo, rat
Text: PROTOCOL FOR THE BLOCKADE OF AMPHETAMINE-STIMULATED LOCOMOTION IN RATS
The blockade of amphetamine-stimulated locomotion procedure is a modification of the Locomotor Activity Protocol in the Omnitech Digiscan Activity Monitors described above. The blockade of amphetamine-stimulated locomotion procedure uses the central nervous system stimulant d-amphetamine to assess antipsychotic activity of dopaminergic agents.
Male Sprague-Dawley rats (Harlan Labs) were used for these studies. Drugs were dissolved in saline or water, and administered either orally (PO) or intraperitoneally (IP) in volumes of 5 mL/kg. Saline control rats and amphetamine (0.5 mg/kg IP) control rats are included with each study (n=4-6 rats per treatment group). For the IP studies, amphetamine is given 20 minutes prior to the drug, after which a 30 minute locomotor activity test is conducted. For the oral study, drug is dosed 30 minutes prior to the test, while amphetamine is given 15 minutes prior to the test, which allows time for oral absorption. Locomotor activity (centimeters travelled per 30 minute test) is measured in 16"×16" open chambers. Amphetamine generally produces a 2- to 3-fold increase in locomotion over saline controls. Drug effects are reported as percent reversal of amphetamine-stimulated locomotion. Significant changes in amphetamine-stimulated locomotion, relative to amphetamine treated controls, were determined by t-test. The dose which would reverse amphetamine-stimulated locomotion by 50% (ED50) and the 95% confidence limits were estimated by regression analysis.

[6] = system: synthesis rates of rat brain catecholamines; conditions: ip
Protocol: Test compounds were administered to rats i.p. 30 minutes before the injection of the L-aromatic amino acid decarboxylase inhibitor, NSD 1015 (100 mg/kg i.p.). Rats were sacrificed by decapitation 30 minutes later. The striatum and mesolimbic regions were rapidly dissected from the brains and stored at -70° C. until assayed. Synthesis rates of rat brain catecholamines were estimated by measuring the accumulation of the DA precursor DOPA after NSD 1015 administration by HPLC with electrochemical detection (Puglsey, et al., 1995). Each value represents the mean of four determinations and is expressed as a percent of the control values.

SMILES: O=C(CCCN1CCC(O)(c2ccc(Cl)cc2)CC1)c1ccc(F)cc1 [haloperidol]
- antagonism of DA agonist-induced disruption of PPI (result in words) [1]: can be antagonized

SMILES: CN1CCc2cccc3c2[C@H]1Cc1ccc(O)c(O)c1-3 [apomorphine]
- blocking of PPI by DA agonists (result in words) [1]: can be blocked

SMILES: c1ccc(N2CCN(Cc3ccc4c(c3)NCCN4)CC2)cc1 [Example 3, 6-(4-Phenylpiperazin-1-ylmethyl)-1,2,3,4-tetrahydroquinoxaline]
- IC50 [2]: 50 nM
- IC50 [3]: 3200 nM

SMILES: Cc1cccc(N2CCN(Cc3ccc4c(c3)NCCN4)CC2)c1 [Example 9, 6-(4-m-Tolylpiperazin-1-ylmethyl)-1,2,3,4-tetrahydroquinoxaline]
- IC50 [2]: 36.3 nM

SMILES: Cc1ccc(N2CCN(Cc3ccc4c(c3)NCCN4)CC2)cc1Cl [Example 1, 6-[4-(3-Chloro-4-methylphenyl)piperazin-1-ylmethyl]-1,2,3,4-tetrahydroquinoxaline]
- IC50 [2]: 3.9 nM
- IC50 [3]: 1810 nM
- IC50 [4]: 10 nM
- blockade of amphetamine-stimulated locomotion (result in words) ([5]; rat, 3, 10, and 30 mg/kg IP): dose-dependent blockade
- ED50 ([5]; rat, IP, read-out: blockade of amphetamine-stimulated locomotion ED50): 9.1 mg/kg
- ED50 ([5]; rat, PO, read-out: oral blockade of amphetamine-stimulated locomotion ED50): > 30 mg/kg
- DA Synthesis in Rat Hippocampus [6]: +62% of the control values
- DA Synthesis in Rat Striatum [6]: -9% of the control values

SMILES: CC(N)Cc1ccccc1 (stereo not drawn) [amphetamine]
- blocking of PPI by DA agonists (result in words) [1]: can be blocked

SMILES: Cc1ccnc(N2CCN(Cc3ccc4c(c3)NCCN4)CC2)c1 [Example 10, 6-[4-(4-Methylpyridin-2-yl)piperazin-1-ylmethyl]-1,2,3,4-tetrahydroquinoxaline]
- IC50 [2]: 35 nM

SMILES: Clc1ccc(N2CCN(Cc3ccc4c(c3)NCCN4)CC2)cc1 [Example 5, 6-[4-(4-Chlorophenyl)piperazin-1-ylmethyl]1,2,3,4-tetrahydroquinoxaline]
- IC50 [2]: 6 nM
- IC50 [4]: 19 nM
- DA Synthesis in Rat Striatum [6]: +20% of the control values

SMILES: FC(F)(F)c1cccc(N2CCN(Cc3ccc4c(c3)NCCN4)CC2)c1 [Example 11, 6-[4-(3-Trifluoromethylphenyl)piperazin-1-ylmethyl]-1,2,3,4-tetrahydroquinoxaline]
- IC50 [2]: 22 nM
- IC50 [3]: 683 nM

SMILES: Clc1ccc(N2CCN(Cc3ccc4c(c3)NCCN4)CC2)cc1Cl [Example 7, 6-[4-(3,4-Dichlorophenyl)piperazin-1-ylmethyl]-1,2,3,4-tetrahydroquinoxaline]
- IC50 [2]: 5 nM
- IC50 [3]: 1650 nM
- blockade of amphetamine-stimulated locomotion ([5]; rat, 30 mg/kg PO): 100%
- DA Synthesis in Rat Striatum [6]: +23% of the control values

SMILES: COc1ccc(N2CCN(Cc3ccc4c(c3)NCCN4)CC2)cc1 [Example 4, 6-[4-(4-Methoxyphenyl)piperazin-1-ylmethyl]-1,2,3,4-tetrahydroquinoxaline]
- IC50 [2]: 39.3 nM

SMILES: CN1CCN(C2=Nc3cc(Cl)ccc3Nc3ccccc32)CC1 [clozapine]
- antagonism of DA agonist-induced disruption of PPI (result in words) [1]: can be blocked

SMILES: Fc1ccc(N2CCN(Cc3ccc4c(c3)NCCN4)CC2)cc1 [Example 6, 6-[4-(4-Fluorophenyl)piperazin-1-ylmethyl]-1,2,3,4-tetrahydroquinoxaline]
- IC50 [2]: 50.6 nM

SMILES: Cc1ccc(N2CCN(Cc3ccc4c(c3)NCCN4)CC2)cc1 [Example 8, 6-(4-p-Tolylpiperazin-1-ylmethyl)-1,2,3,4-tetrahydroquinoxaline]
- IC50 [2]: 11.1 nM
- IC50 [4]: 8.2 nM
- DA Synthesis in Rat Striatum [6]: +39% of the control values
